Results from the kinase profiling compilation of Christmann-Franck et al. (2016).

Assays:
Assay in all cases: radiometric filter-binding kinase assay, Kinase HotSpot
MARK2 (human) = MARK2 (human) (UniProt Q7KZI7); settings: compound 0.5 µM; ATP 10 µM
MAPK9 (human) = MAPK9 (human) (UniProt P45984); settings: compound 0.5 µM; ATP 10 µM
STK39 (human) = STK39 (human) (UniProt Q9UEW8); settings: compound 0.5 µM
CSNK1G3 (human) = CSNK1G3 (human) (UniProt Q9Y6M4); settings: compound 0.5 µM; ATP 10 µM
[1] = biological target: TYK2 JH1 catalytic (human) (UniProt P29597); settings: compound 0.5 µM; ATP 10 µM
CAMK2A (human) = CAMK2A (human) (UniProt Q9UQM7); settings: compound 0.5 µM; ATP 10 µM
[2] = test system: SGK1 (human), O00141 [S422D]; settings: compound 0.5 µM; ATP 10 µM
WEE1 (human) = WEE1 (human) (UniProt P30291); settings: compound 0.5 µM; ATP 10 µM
MAPK11 (human) = MAPK11 (human) (UniProt Q15759); settings: compound 0.5 µM; ATP 10 µM
Chain of MAPK11 (human) (Q15759 whole entry, looked up): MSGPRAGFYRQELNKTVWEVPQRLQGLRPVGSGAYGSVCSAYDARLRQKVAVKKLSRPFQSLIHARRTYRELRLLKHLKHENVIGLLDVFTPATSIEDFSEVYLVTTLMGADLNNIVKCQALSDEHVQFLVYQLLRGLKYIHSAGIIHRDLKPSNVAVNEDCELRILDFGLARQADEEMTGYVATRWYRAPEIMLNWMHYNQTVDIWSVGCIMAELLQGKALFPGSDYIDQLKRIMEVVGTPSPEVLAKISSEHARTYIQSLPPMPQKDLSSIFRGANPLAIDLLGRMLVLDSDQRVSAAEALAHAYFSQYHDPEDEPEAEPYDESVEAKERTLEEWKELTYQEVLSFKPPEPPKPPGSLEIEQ

PAK2 (human) = PAK2 (human) (UniProt Q13177); settings: compound 0.5 µM; ATP 10 µM
RPS6KA6 KD1 KD2 (human) = RPS6KA6 KD1 KD2 (human) (UniProt Q9UK32); settings: compound 0.5 µM; ATP 10 µM
PKN1 (human) = PKN1 (human) (UniProt Q16512); settings: compound 0.5 µM; ATP 10 µM
PRKD3 (human) = PRKD3 (human) (UniProt O94806); settings: compound 0.5 µM; ATP 10 µM
STK4 (human) = STK4 (human) (UniProt Q13043); settings: compound 0.5 µM; ATP 10 µM
NTRK1 (human) = NTRK1 (human) (UniProt P04629); settings: compound 0.5 µM; ATP 10 µM
RPS6KA1 KD1 KD2 (human) = RPS6KA1 KD1 KD2 (human) (UniProt Q15418); settings: compound 0.5 µM; ATP 10 µM
Chain of RPS6KA1 KD1 KD2 (human) (Q15418 whole entry, looked up): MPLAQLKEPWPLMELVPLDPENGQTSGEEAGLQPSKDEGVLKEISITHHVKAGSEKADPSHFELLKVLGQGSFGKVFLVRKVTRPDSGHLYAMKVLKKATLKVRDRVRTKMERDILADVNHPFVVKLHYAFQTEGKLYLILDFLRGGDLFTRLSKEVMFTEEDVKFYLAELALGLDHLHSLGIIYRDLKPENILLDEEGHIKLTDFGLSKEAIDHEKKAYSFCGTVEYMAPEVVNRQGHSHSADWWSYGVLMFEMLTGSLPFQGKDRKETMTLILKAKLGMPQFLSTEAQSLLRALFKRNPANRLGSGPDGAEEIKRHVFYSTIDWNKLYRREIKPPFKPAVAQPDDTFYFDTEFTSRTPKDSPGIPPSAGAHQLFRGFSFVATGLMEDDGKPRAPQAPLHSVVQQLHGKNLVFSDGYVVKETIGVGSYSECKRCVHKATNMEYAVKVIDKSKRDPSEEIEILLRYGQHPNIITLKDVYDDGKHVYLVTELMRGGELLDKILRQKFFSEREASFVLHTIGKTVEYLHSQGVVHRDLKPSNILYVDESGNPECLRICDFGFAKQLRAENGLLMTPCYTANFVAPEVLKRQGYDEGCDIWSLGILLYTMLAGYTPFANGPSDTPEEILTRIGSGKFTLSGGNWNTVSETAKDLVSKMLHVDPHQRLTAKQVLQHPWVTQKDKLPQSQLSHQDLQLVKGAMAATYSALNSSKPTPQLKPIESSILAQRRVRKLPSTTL

DCLK2 (human) = DCLK2 (human) (UniProt Q8N568); settings: compound 0.5 µM; ATP 10 µM
EPHB4 (human) = EPHB4 (human) (UniProt P54760); settings: compound 0.5 µM; ATP 10 µM
Chain of EPHB4 (human) (P54760 whole entry, looked up): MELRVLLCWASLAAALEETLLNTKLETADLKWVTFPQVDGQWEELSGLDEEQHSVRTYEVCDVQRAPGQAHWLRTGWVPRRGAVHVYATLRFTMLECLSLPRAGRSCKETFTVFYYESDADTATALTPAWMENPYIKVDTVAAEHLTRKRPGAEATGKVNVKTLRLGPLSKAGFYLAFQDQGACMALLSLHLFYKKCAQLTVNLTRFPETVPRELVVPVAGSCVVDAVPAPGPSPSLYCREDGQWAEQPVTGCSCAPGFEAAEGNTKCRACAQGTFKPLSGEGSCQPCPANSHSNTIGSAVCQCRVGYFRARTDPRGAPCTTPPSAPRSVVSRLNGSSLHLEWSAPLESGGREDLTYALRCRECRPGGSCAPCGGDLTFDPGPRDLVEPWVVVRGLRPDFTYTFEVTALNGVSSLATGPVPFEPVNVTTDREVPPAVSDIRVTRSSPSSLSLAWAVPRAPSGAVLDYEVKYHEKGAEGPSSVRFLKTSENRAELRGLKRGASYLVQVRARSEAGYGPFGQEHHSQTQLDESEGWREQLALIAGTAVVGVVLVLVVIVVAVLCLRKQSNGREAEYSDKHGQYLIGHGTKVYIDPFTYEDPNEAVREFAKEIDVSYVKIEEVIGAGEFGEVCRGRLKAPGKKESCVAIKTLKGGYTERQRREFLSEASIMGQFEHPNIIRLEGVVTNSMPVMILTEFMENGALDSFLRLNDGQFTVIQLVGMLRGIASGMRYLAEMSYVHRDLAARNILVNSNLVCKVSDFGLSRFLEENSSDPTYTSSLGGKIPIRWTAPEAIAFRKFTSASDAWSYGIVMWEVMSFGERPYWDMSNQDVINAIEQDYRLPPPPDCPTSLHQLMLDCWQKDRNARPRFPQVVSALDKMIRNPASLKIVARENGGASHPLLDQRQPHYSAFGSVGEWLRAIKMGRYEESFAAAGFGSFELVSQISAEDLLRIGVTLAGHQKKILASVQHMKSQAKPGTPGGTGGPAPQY

CDK2 CCNA2 (human) = CDK2 CCNA2 (human) (UniProt P24941+P20248); settings: compound 0.5 µM
Chain of CDK2 CCNA2 (human) (P20248 whole entry, looked up, other chains not shown): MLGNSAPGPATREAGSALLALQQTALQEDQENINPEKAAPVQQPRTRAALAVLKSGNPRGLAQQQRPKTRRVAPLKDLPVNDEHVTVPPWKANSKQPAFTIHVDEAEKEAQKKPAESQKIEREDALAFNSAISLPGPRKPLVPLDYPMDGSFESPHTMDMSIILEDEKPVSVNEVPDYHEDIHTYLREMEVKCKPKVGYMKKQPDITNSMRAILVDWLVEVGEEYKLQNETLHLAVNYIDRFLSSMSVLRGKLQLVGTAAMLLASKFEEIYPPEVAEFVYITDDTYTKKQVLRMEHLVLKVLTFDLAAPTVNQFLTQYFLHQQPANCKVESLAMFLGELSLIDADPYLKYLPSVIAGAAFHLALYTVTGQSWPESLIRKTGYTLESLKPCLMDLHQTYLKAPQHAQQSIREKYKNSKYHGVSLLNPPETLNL

MARK4 (human) = MARK4 (human) (UniProt Q96L34); settings: compound 0.5 µM; ATP 10 µM
MAP2K1 (human) = MAP2K1 (human) (UniProt Q02750); settings: compound 0.5 µM; ATP 10 µM
BRSK1 (human) = BRSK1 (human) (UniProt Q8TDC3); settings: compound 0.5 µM; ATP 10 µM
ZAP70 (human) = ZAP70 (human) (UniProt P43403); settings: compound 0.5 µM; ATP 10 µM
DAPK3 (human) = DAPK3 (human) (UniProt O43293); settings: compound 0.5 µM; ATP 10 µM
CLK1 (human) = CLK1 (human) (UniProt P49759); settings: compound 0.5 µM; ATP 10 µM
INSR (human) = INSR (human) (UniProt P06213); settings: compound 0.5 µM; ATP 10 µM
Chain of INSR (human) (P06213 whole entry, looked up): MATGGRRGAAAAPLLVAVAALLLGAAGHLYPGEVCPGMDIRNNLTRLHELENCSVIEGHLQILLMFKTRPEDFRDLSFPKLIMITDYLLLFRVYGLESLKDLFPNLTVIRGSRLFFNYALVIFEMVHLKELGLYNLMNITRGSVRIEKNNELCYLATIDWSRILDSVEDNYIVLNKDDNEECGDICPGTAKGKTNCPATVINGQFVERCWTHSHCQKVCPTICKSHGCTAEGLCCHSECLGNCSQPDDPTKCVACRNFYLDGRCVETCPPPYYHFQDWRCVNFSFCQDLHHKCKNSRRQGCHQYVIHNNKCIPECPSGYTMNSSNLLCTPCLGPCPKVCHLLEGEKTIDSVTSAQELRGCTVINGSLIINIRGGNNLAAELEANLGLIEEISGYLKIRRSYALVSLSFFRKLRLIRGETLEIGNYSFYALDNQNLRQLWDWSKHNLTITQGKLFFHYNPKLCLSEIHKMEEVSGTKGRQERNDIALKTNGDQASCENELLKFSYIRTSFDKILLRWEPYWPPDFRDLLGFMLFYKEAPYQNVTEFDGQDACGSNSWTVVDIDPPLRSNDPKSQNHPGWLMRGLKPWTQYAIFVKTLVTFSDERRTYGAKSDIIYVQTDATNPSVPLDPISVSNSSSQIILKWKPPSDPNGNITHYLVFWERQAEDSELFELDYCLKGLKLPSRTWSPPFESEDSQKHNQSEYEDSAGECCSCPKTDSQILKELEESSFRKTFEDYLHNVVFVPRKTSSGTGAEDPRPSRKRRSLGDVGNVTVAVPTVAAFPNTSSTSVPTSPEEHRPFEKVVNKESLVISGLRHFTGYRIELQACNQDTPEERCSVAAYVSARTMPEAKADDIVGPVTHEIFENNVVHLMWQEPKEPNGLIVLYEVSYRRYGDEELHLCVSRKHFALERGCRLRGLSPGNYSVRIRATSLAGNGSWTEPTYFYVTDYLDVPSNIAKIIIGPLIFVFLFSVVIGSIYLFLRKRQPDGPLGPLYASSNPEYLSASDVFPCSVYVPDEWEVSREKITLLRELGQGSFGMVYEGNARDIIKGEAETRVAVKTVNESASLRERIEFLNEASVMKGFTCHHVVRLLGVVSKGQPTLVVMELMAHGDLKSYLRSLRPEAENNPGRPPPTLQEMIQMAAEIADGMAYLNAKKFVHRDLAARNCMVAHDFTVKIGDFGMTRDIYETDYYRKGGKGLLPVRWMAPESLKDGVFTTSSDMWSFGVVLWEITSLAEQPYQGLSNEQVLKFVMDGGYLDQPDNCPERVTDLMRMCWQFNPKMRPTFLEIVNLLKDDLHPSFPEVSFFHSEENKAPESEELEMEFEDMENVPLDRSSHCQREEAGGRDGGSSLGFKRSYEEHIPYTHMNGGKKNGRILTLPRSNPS

CDK1 CCNB1 (human) = CDK1 CCNB1 (human) (UniProt P06493+P14635); settings: compound 0.5 µM
Chain of CDK1 CCNB1 (human) (P06493 whole entry, looked up): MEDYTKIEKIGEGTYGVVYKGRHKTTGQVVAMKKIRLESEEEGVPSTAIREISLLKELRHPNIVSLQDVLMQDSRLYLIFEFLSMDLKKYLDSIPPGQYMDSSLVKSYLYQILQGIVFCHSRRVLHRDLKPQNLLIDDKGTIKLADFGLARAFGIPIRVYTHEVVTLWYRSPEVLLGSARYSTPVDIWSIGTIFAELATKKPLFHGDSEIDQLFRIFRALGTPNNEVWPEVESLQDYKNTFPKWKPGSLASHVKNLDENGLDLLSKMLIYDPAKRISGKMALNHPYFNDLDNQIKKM
Chain of CDK1 CCNB1 (human) (P14635 whole entry, looked up): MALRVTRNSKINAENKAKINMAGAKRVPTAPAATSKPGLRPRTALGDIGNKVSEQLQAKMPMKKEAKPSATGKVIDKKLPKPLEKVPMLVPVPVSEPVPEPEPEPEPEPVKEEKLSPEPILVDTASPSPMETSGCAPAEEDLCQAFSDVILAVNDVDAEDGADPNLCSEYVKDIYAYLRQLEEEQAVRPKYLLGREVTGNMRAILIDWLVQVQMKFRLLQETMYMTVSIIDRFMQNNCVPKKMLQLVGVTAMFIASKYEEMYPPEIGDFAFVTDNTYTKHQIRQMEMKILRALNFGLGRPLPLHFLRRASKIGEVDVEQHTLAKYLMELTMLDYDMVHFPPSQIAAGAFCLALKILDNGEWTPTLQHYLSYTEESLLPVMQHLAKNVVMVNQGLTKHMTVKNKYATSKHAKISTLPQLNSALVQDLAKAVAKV

TGFBR1 (human) = TGFBR1 (human) (UniProt P36897); settings: compound 0.5 µM; ATP 10 µM
GRK5 (human) = GRK5 (human) (UniProt P34947); settings: compound 0.5 µM; ATP 10 µM
FGFR1 (human) = FGFR1 (human) (UniProt P11362); settings: compound 0.5 µM; ATP 10 µM
RPS6KB1 (human) = RPS6KB1 (human) (UniProt P23443); settings: compound 0.5 µM; ATP 10 µM
AURKA (human) = AURKA (human) (UniProt O14965); settings: compound 0.5 µM; ATP 10 µM
MUSK (human) = MUSK (human) (UniProt O15146); settings: compound 0.5 µM; ATP 10 µM
WNK3 (human) = WNK3 (human) (UniProt Q9BYP7); settings: compound 0.5 µM; ATP 10 µM
PRKCZ (human) = PRKCZ (human) (UniProt Q05513); settings: compound 0.5 µM; ATP 10 µM
MYLK (human) = MYLK (human) (UniProt Q15746); settings: compound 0.5 µM
TGFBR2 (human) = TGFBR2 (human) (UniProt P37173); settings: compound 0.5 µM; ATP 10 µM
SLK (human) = SLK (human) (UniProt Q9H2G2); settings: compound 0.5 µM; ATP 10 µM
SGK3 (human) = SGK3 (human) (UniProt Q96BR1); settings: compound 0.5 µM; ATP 10 µM
CSNK1D (human) = CSNK1D (human) (UniProt P48730); settings: compound 0.5 µM
Chain of CSNK1D (human) (P48730 whole entry, looked up): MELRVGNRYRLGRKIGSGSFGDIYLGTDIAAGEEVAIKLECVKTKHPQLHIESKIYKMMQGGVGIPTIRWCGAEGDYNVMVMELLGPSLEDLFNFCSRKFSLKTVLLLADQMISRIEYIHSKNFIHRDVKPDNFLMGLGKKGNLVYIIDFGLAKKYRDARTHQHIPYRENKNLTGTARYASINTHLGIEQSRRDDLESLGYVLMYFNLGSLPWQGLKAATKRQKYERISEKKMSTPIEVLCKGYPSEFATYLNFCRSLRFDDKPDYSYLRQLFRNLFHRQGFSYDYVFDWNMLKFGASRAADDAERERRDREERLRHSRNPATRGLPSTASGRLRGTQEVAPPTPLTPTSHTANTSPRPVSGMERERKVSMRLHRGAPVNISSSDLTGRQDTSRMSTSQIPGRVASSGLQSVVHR

BLK (human) = BLK (human) (UniProt P51451); settings: compound 0.5 µM; ATP 10 µM
FRK (human) = FRK (human) (UniProt P42685); settings: compound 0.5 µM; ATP 10 µM

## O=c1[nH]c2ccccc2n1C1CCN(Cc2ccc(-c3nc4cc5[nH]cnc5cc4nc3-c3ccccc3)cc2)CC1
MARK2 (human)
  residual activity: 92.2%
MAPK9 (human)
  residual activity: 91.9%
STK39 (human)
  residual activity: 98.2%
CSNK1G3 (human)
  residual activity: 96.5%
[1]
  residual activity: 101%
CAMK2A (human)
  residual activity: 109%
[2]
  residual activity: 102%
WEE1 (human)
  residual activity: 93.9%
MAPK11 (human)
  residual activity: 102%
PAK2 (human)
  residual activity: 99.2%
RPS6KA6 KD1 KD2 (human)
  residual activity: 109%
PKN1 (human)
  residual activity: 90.3%
PRKD3 (human)
  residual activity: 99.5%
STK4 (human)
  residual activity: 95.2%
NTRK1 (human)
  residual activity: 99.4%
RPS6KA1 KD1 KD2 (human)
  residual activity: 101%
DCLK2 (human)
  residual activity: 107%
EPHB4 (human)
  residual activity: 96.4%
CDK2 CCNA2 (human)
  residual activity: 98%
MARK4 (human)
  residual activity: 102%
MAP2K1 (human)
  residual activity: 96.8%
BRSK1 (human)
  residual activity: 98.3%
ZAP70 (human)
  residual activity: 97.3%
DAPK3 (human)
  residual activity: 106%
CLK1 (human)
  residual activity: 109%
INSR (human)
  residual activity: 102%
CDK1 CCNB1 (human)
  residual activity: 85%
TGFBR1 (human)
  residual activity: 102%
GRK5 (human)
  residual activity: 109%
FGFR1 (human)
  residual activity: 102%
RPS6KB1 (human)
  residual activity: 101%
AURKA (human)
  residual activity: 99%
MUSK (human)
  residual activity: 96.8%
WNK3 (human)
  residual activity: 106%
PRKCZ (human)
  residual activity: 102%
MYLK (human)
  residual activity: 104%
TGFBR2 (human)
  residual activity: 95.5%
SLK (human)
  residual activity: 97.7%
SGK3 (human)
  residual activity: 108%
CSNK1D (human)
  residual activity: 100%
BLK (human)
  residual activity: 106%
FRK (human)
  residual activity: 102%

## O=C1NC(=O)c2c1c1c3ccccc3[nH]c1c1[nH]c3cc(Br)ccc3c21
MARK2 (human)
  residual activity: 40.4%
MAPK9 (human)
  residual activity: 99.6%
STK39 (human); ATP 10 µM
  residual activity: 90.7%
CSNK1G3 (human)
  residual activity: 94.6%
[1]
  residual activity: 81.1%
CAMK2A (human)
  residual activity: 78.3%
[2]
  residual activity: 47.6%
WEE1 (human)
  residual activity: 74.6%
MAPK11 (human)
  residual activity: 93.6%
PAK2 (human)
  residual activity: 101%
RPS6KA6 KD1 KD2 (human)
  residual activity: 32.4%
PKN1 (human)
  residual activity: 66%
PRKD3 (human)
  residual activity: 49.5%
STK4 (human)
  residual activity: 52%
NTRK1 (human)
  residual activity: 82.2%
RPS6KA1 KD1 KD2 (human)
  residual activity: 58.4%
DCLK2 (human)
  residual activity: 87.2%
EPHB4 (human)
  residual activity: 86.5%
CDK2 CCNA2 (human); ATP 10 µM
  residual activity: 52.5%
MARK4 (human)
  residual activity: 38.7%
MAP2K1 (human)
  residual activity: 90.3%
BRSK1 (human)
  residual activity: 21.5%
ZAP70 (human)
  residual activity: 104%
DAPK3 (human)
  residual activity: 62.9%
CLK1 (human)
  residual activity: 97%
INSR (human)
  residual activity: 86.4%
CDK1 CCNB1 (human); ATP 10 µM
  residual activity: 47.8%
TGFBR1 (human)
  residual activity: 96.9%
GRK5 (human)
  residual activity: 97%
FGFR1 (human)
  residual activity: 85.3%
RPS6KB1 (human)
  residual activity: 45.2%
AURKA (human)
  residual activity: 60.7%
MUSK (human)
  residual activity: 88.4%
WNK3 (human)
  residual activity: 92.3%
PRKCZ (human)
  residual activity: 91.8%
MYLK (human); ATP 10 µM
  residual activity: 85.3%
TGFBR2 (human)
  residual activity: 61.8%
SLK (human)
  residual activity: 90.9%
SGK3 (human)
  residual activity: 97.2%
CSNK1D (human); ATP 10 µM
  residual activity: 96.9%
BLK (human)
  residual activity: 83.9%
FRK (human)
  residual activity: 93.9%

## N#CCCc1ccc2c(c1)-c1[nH]c3ccc([N+](=O)[O-])cc3c1CC(=O)N2
MARK2 (human)
  residual activity: 65.5%
MAPK9 (human)
  residual activity: 97.1%
STK39 (human); ATP 10 µM
  residual activity: 96.4%
CSNK1G3 (human)
  residual activity: 89.7%
[1]
  residual activity: 48.1%
CAMK2A (human)
  residual activity: 69.1%
[2]
  residual activity: 87.9%
WEE1 (human)
  residual activity: 100%
MAPK11 (human)
  residual activity: 101%
PAK2 (human)
  residual activity: 55.6%
RPS6KA6 KD1 KD2 (human)
  residual activity: 13.4%
PKN1 (human)
  residual activity: 78%
PRKD3 (human)
  residual activity: 84%
STK4 (human)
  residual activity: 30.9%
NTRK1 (human)
  residual activity: 115%
RPS6KA1 KD1 KD2 (human)
  residual activity: 59.9%
DCLK2 (human)
  residual activity: 104%
EPHB4 (human)
  residual activity: 82.2%
CDK2 CCNA2 (human); ATP 10 µM
  residual activity: 2.93%
MARK4 (human)
  residual activity: 62.5%
MAP2K1 (human)
  residual activity: 97.1%
BRSK1 (human)
  residual activity: 46.8%
ZAP70 (human)
  residual activity: 106%
DAPK3 (human)
  residual activity: 99.3%
CLK1 (human)
  residual activity: 99.6%
INSR (human)
  residual activity: 94.1%
CDK1 CCNB1 (human); ATP 10 µM
  residual activity: 9.89%
TGFBR1 (human)
  residual activity: 103%
GRK5 (human)
  residual activity: 103%
FGFR1 (human)
  residual activity: 91.9%
RPS6KB1 (human)
  residual activity: 98%
AURKA (human)
  residual activity: 78.7%
MUSK (human)
  residual activity: 63%
WNK3 (human)
  residual activity: 96.5%
PRKCZ (human)
  residual activity: 83.4%
MYLK (human); ATP 10 µM
  residual activity: 95.2%
TGFBR2 (human)
  residual activity: 10.1%
SLK (human)
  residual activity: 87.2%
SGK3 (human)
  residual activity: 99.2%
CSNK1D (human); ATP 10 µM
  residual activity: 97.4%
BLK (human)
  residual activity: 78.8%
FRK (human)
  residual activity: 92.7%

## O=c1c2ccccc2[nH]c(=S)n1CCN1CCC(=C(c2ccc(F)cc2)c2ccc(F)cc2)CC1
MARK2 (human)
  residual activity: 108%
MAPK9 (human)
  residual activity: 97%
STK39 (human); ATP 10 µM
  residual activity: 96.8%
CSNK1G3 (human)
  residual activity: 97.1%
[1]
  residual activity: 107%
CAMK2A (human)
  residual activity: 105%
[2]
  residual activity: 96%
WEE1 (human)
  residual activity: 93%
MAPK11 (human)
  residual activity: 99.3%
PAK2 (human)
  residual activity: 103%
RPS6KA6 KD1 KD2 (human)
  residual activity: 101%
PKN1 (human)
  residual activity: 103%
PRKD3 (human)
  residual activity: 101%
STK4 (human)
  residual activity: 103%
NTRK1 (human)
  residual activity: 97%
RPS6KA1 KD1 KD2 (human)
  residual activity: 97.9%
DCLK2 (human)
  residual activity: 101%
EPHB4 (human)
  residual activity: 97.1%
CDK2 CCNA2 (human); ATP 10 µM
  residual activity: 99.9%
MARK4 (human)
  residual activity: 102%
MAP2K1 (human)
  residual activity: 97.5%
BRSK1 (human)
  residual activity: 98.3%
ZAP70 (human)
  residual activity: 98%
DAPK3 (human)
  residual activity: 102%
CLK1 (human)
  residual activity: 113%
INSR (human)
  residual activity: 94.3%
CDK1 CCNB1 (human); ATP 10 µM
  residual activity: 83%
TGFBR1 (human)
  residual activity: 96.2%
GRK5 (human)
  residual activity: 103%
FGFR1 (human)
  residual activity: 105%
RPS6KB1 (human)
  residual activity: 97.9%
AURKA (human)
  residual activity: 100%
MUSK (human)
  residual activity: 93.6%
WNK3 (human)
  residual activity: 107%
PRKCZ (human)
  residual activity: 102%
MYLK (human); ATP 10 µM
  residual activity: 96.2%
TGFBR2 (human)
  residual activity: 119%
SLK (human)
  residual activity: 103%
SGK3 (human)
  residual activity: 114%
CSNK1D (human); ATP 10 µM
  residual activity: 100%
BLK (human)
  residual activity: 102%
FRK (human)
  residual activity: 100%
